The source of these data is ChEMBL document CHEMBL4706500, “Identification of dibucaine derivatives as novel potent enterovirus 2C helicase inhibitors: In vitro, in vivo, and combination therapy study” (Eur J Med Chem, 2020).

Molecules are shown by their SMILES. Activity calls are given as the source filed them. The calls are words filed in the database; no cut-off is given here. Some results are limits rather than exact numbers.

Data set [1] concerns Enterovirus A71. Nature of the data set: Antiviral activity against Enterovirus A71 infected in human RD cells assessed as inhibition of viral replication measured by CCK-8 assay. Format: functional, organism-based. The conditions noted are these: Enterovirus A.
Data set [2] concerns RD. Nature of the data set: Cytotoxicity against human RD cells infected with Enterovirus A71 assessed as reduction in cell viability measured by CCK-8 assay. Format: functional. On the technique in general: Formazan colour is commonly taken as a measure of viable cells.
Data set [3] can be described thus: Selectivity index, ratio of CC50 for human RD cells infected with Enterovirus A71 to EC50 for Enterovirus A71 infected in human RD cells. Particulars: read-out: Selectivity Index. Format: toxicity, cell-based.
Data set [4] has as its system Enterovirus A71. The experiment in a line: Antiviral activity against Enterovirus A71 infected in human RD cells using HEX-labelled RNA as substrate assessed as inhibition of dsRNA unwinding by measuring accumulation of dsRNA at 0.56 uM treated 8 hpi by gel based flourescence assay. The class given is functional, organism-based.
Data set [5] deals with Enterovirus A71. Nature of the data set: Antiviral activity against Enterovirus A71 infected in human RD cells assessed as inhibition of viral replication measured after 48 hrs by plaque assay. Format: functional, organism-based.
The subject of data set [6] is Enterovirus A71. Nature of the data set: Antiviral activity against Enterovirus A71 infected in African green monkey vero cells assessed as down regulation of VP1 expression measured after 24 hrs by immunofluorescence assay. Format: functional, organism-based.
The subject of data set [7] is Enterovirus A71. Nature of the data set: Antiviral activity against Enterovirus A71 infected in human RD cells assessed as inhibition of VP1 expression measured after 24 hrs by Western blot assay. Format: functional, organism-based. On the technique in general: In western blotting, separated proteins are transferred to a membrane and probed.
The test system of data set [8] is Enterovirus A71. The experiment in a line: Antiviral activity against Enterovirus A71 infected in human RD cells assessed as inhibition of 2C expression measured after 24 hrs by Western blot assay. Format: functional, organism-based.
Data set [9] deals with Enterovirus A71. Nature of the data set: Antiviral activity against Enterovirus A71 at early stage of life cycle infected in human RD cells assessed as VP1 expression at 3.2 uM treated 12 hpi measured upto 8 hrs by time of addition assay. Format: functional, organism-based. The conditions noted are these: time hrs <=8.
Data set [10] deals with Enterovirus A71. Nature of the data set: Antiviral activity against Enterovirus A71 at early stage of life cycle infected in African green monkey Vero cells assessed as VP1 expression at 3.2 uM treated 12 hpi measured upto 8 hrs by time of addition assay. Format: functional, organism-based. The conditions noted are these: time hrs <=8.
The test system of data set [11] is Enterovirus A71. Nature of the data set: Antiviral activity against Enterovirus A71 infected in African green monkey Vero cells assessed as reduction in viral RNA titer levels at early stage of life cycle at 3.2 uM treated 12 hpi measured upto 8 hrs by time of addition assay. Format: functional, organism-based. The conditions noted are these: time hrs <=8.
Data set [12] concerns Enterovirus A71. The experiment in a line: Antiviral activity against Enterovirus A71 infected in human RD cells using HEX-labelled RNA as substrate assessed as inhibition of dsRNA unwinding by measuring accumulation of dsRNA at 4.95 uM treated 8 hpi by gel based flourescence assay. The class given is functional, organism-based.
Data set [13] relates to Enterovirus A71. The experiment in a line: Antiviral activity against Enterovirus A71 infected in human RD cells using HEX-labelled RNA as substrate assessed as increase in accumulation of 2C at 4.95 uM measured after 8hpi by gel based flourescence assay. Format: functional, organism-based.
Data set [14] has as its system RD. The experiment in a line: Inhibition of 2C ATPase helicase activity in Enterovirus A71 infected in human RD cells measured by gel electrophoresis method. The class given is cell-based.
The test system of data set [15] is Enterovirus A71. Nature of the data set: Antiviral activity against EV-A71 GZ-C11 infected in KM mouse assessed as improvement in survival rate administered 4 mg/kg, po bid for 4 days starting 6 hrs post infection measured on day 14 (reference value: 30%). Particulars: Enterovirus A, 96 h, time 4 day. Format: functional.
Data set [16] concerns Enterovirus A71. Nature of the data set: Antiviral activity against EV-A71 GZ-C11 infected in KM mouse assessed as improvement in survival rate administered 6 mg/kg, po bid for 4 days starting 6 hrs post infection measured on day 14 (reference value: 30%). The class given is functional. Particulars: Enterovirus A, 96 h, time 4 day.
Data set [17] relates to Enterovirus A71. Nature of the data set: Antiviral activity against EV-A71 GZ-C11 infected in KM mouse assessed as decrease in viral infection clinical symptoms administered 6 mg/kg, po bid for 4 days treatment started 6 hrs post infection measured on day 14 relative to control. Particulars: time 14.0 day. Format: functional, organism-based.
Data set [18] in a line: Toxicity in 14 day suckling KM mouse assessed as changes in weight growth at 6 mg/kg, po bid for 4 successive days measured on day 12 relative to control. The class given is organism-based. The conditions noted are these: in vivo, 288 h, time 12 day.
Data set [19] relates to Enterovirus A71. The experiment in a line: Antiviral activity against EV-A71 GZ-C11 infected in KM mouse assessed as prevention of death administered in presence of emetine at 6 mg/kg, po. Format: functional, organism-based.

For orientation: EC50 means the concentration at which the effect is half-maximal. By CC50 is commonly meant the concentration giving 50% cytotoxicity. Consider `CCCCOc1cc(C(=O)NCCN2CCCCC2)c2ccccc2n1`, for which the EC50 in the data set with Enterovirus A71 [1] was found to be 1.47 µM. Moreover, in the data set on RD [2], the CC50 was 93.8 µM.

For the compound `CCCCOc1cc(C(=O)NCCN(CC)CC)c2ccccc2n1` [DIBUCAINE], in the data set on Enterovirus A71 [1], the EC50 came out at 2.27 µM. Besides, in the data set on RD [2], the CC50 was over 97 µM. The selectivity ratio in [3] is over 42.7.

As to `CCCCOc1cc(C(=O)NCCN2CCCC2)c2ccccc2n1`, the EC50 with Enterovirus A71 [1] was found to be 1.53 µM. The CC50 in the data set on RD [2] is over 97.7 µM. Besides, the selectivity ratio in data set [3] was over 64.1.

On to `CCOc1cc(C(=O)NCCN(CC)CC)c2ccccc2n1`, for which the EC50 with Enterovirus A71 [1] amounted to 2.48 µM. In the data set with RD [2], the CC50 is over 106 µM. The selectivity ratio in [3] is over 42.7.

On to `CC(C)S(=O)(=O)n1c(N)nc2ccc(/C(=N/O)c3ccccc3)cc21` [ENVIROXIME], for which, in the data set with Enterovirus A71 [1], the EC50 came out at 0.14 µM. In the data set on RD [2], the CC50 was found to be 28 µM. Besides, the selectivity ratio in [3] stood at 200. Besides, the outcome in the data set with Enterovirus A71 [4] was inactive.

For the compound `CCCCOc1cc(C(=O)NCCCN(C)C)c2ccccc2n1`, in the data set on Enterovirus A71 [1], the EC50 is 100 µM.

For `CCCCCCOc1cc(C(=O)NCCN(C)C)c2ccccc2n1`, the EC50 in the data set on Enterovirus A71 [1] turned out to be 2.27 µM. The CC50 in the data set on RD [2] came to 36.4 µM. The selectivity ratio in data set [3] came out at 16.

Regarding `CCCOc1cc(C(=O)NCCN(CC)CC)c2ccccc2n1`, the half-maximal effective concentration (EC50) with Enterovirus A71 [1] is 2.37 µM. For the same compound, in the data set on RD [2], the CC50 is over 101 µM. The selectivity ratio in [3] was over 42.7.

Consider `CCOc1cc(C(=O)NCC(C)C)c2ccccc2n1`, for which, in the data set with Enterovirus A71 [1], the EC50 was over 100 µM.

Consider `CCCOc1cc(C(=O)NCCN(C)C)c2ccccc2n1`, for which the EC50 with Enterovirus A71 [1] is 1.58 µM. Also, the CC50 in the data set with RD [2] is over 111 µM. In addition, the selectivity ratio in [3] is over 70.

With `CCN(CC)CCNC(=O)c1cc(OC)nc2ccccc12`, in the data set on Enterovirus A71 [1], the EC50 was 27.7 µM. Also, the CC50 in the data set on RD [2] is over 111 µM. For the same compound, in data set [3], the selectivity ratio was over 4.

With `CCCCCOc1cc(C(=O)NCCN(CC)CC)c2ccccc2n1`, the EC50 with Enterovirus A71 [1] was determined as 5.83 µM. The cytotoxic concentration (CC50) with RD [2] turned out to be 35 µM. The selectivity ratio in data set [3] was found to be 6.

`CCCCCOc1cc(C(=O)NCCN(C)C)c2ccccc2n1`: the EC50 in the data set with Enterovirus A71 [1] was found to be 1.58 µM. In the data set on RD [2], the CC50 was 75.9 µM. In addition, the selectivity ratio in data set [3] is 48.

As to `CCCCOc1cc(C(=O)NCCN(C)C)c2ccccc2n1`, the EC50 in the data set on Enterovirus A71 [1] is 1.24 µM. For the same compound, the CC50 in the data set with RD [2] was found to be 106 µM. Besides, the selectivity ratio in data set [3] came to 85.4. In addition, the result with Enterovirus A71 [5], with Enterovirus A71 [6], in the data set on Enterovirus A71 [7], with Enterovirus A71 [8], in the data set with Enterovirus A71 [9] and with Enterovirus A71 [10] was Active. Further, the result with Enterovirus A71 [11], with Enterovirus A71 [12], with Enterovirus A71 [13], in the data set with Enterovirus A71 [17] and in the data set with Enterovirus A71 [19] was Active. In the data set with RD [14], the inhibition result was “Active”. Moreover, in the data set with Enterovirus A71 [15], the survival at 4 mg/kg worked out at 30%. In addition, in the data set with Enterovirus A71 [16], the survival at 6 mg/kg turned out to be 67%. Also, the Activity entry in data set [18] is on record as “Non-Toxic”.

Regarding `CCCNC(=O)c1cc(OCC)nc2ccccc12`, the EC50 in the data set on Enterovirus A71 [1] turned out to be 2.02 µM. Also, in the data set on RD [2], the CC50 is over 70.2 µM. The selectivity ratio in data set [3] was over 34.8.

As to `CCCNC(=O)c1cc(OCCC)nc2ccccc12`, in the data set on Enterovirus A71 [1], the EC50 was over 100 µM.

Consider `CCOc1cc(C(=O)NCCN(C)C)c2ccccc2n1`, for which, in the data set on Enterovirus A71 [1], the half-maximal effective concentration (EC50) worked out at 3.62 µM. Also, in the data set with RD [2], the CC50 amounted to 116 µM. Besides, the selectivity ratio in [3] came to 31.9.

`CC(C)CNC(=O)c1cc(OC(C)C)nc2ccccc12`: the EC50 in the data set with Enterovirus A71 [1] came to 58.2 µM. Moreover, in the data set with RD [2], the CC50 is over 116 µM. Besides, the selectivity ratio in data set [3] was over 2.

With `CCCCCCOc1cc(C(=O)NCCN(CC)CC)c2ccccc2n1`, the EC50 in the data set on Enterovirus A71 [1] came to 4.21 µM. Further, the CC50 in the data set with RD [2] was determined as 33.6 µM. The selectivity ratio in data set [3] was found to be 8.

As to `CCCCOc1cc(C(=O)NCCCN(CC)CC)c2ccccc2n1`, in the data set with Enterovirus A71 [1], the EC50 amounted to 100 µM. Besides, the selectivity ratio in [3] stood at 64.

As to `CCCOc1cc(C(=O)NCC(C)C)c2ccccc2n1`, the EC50 with Enterovirus A71 [1] was found to be 58.2 µM. Moreover, the CC50 in the data set with RD [2] stood at 87.3 µM. Further, in data set [3], the selectivity ratio was 1.5.
